Data reported in US8816078B2, “Acidic gas removal by aqueous amine solvents” (Board of Regents, The University of Texas System, priority 2010, dated 2014).
Values belong to the compound of their own block, whether it stands above or below them.

What was measured:
[1] = Thermal degradation in sealed stainless steel cylinders at 150° C., loss of original amine over time; format: physicochemical; settings: 8 m 1-MPZ, end of the experiment (30 weeks)
Experimental: Samples of each solution were contained in stainless steel, well-sealed cylinders and placed in a forced-convection oven for extended periods of time. The loss of the original amine is tracked over time to determine the rate of thermal degradation.
The thermal degradation of 8 m 1-MPZ at 150° C. was studied. The main degradation products are PZ, 1,4-DMPZ, formyl amides, and formate.
The thermal degradation of a blend of 4 m PZ and 4 m 1-MPZ at 150° C. was previously studied. […] Based on the results of the 8 m 1-MPZ experiment discussed above, 1,4-DMPZ was expected to be produced as a degradation product.
Solutions with varying compositions were placed in thermal cylinders at 150° C. for up to 15 weeks. At this temperature, some degradation will occur, but the conversion between PZ, 1-MPZ, and 1,4-DMPZ should be able to be observed. Three starting solutions were used: 5 m PZ+2 m 1-MPZ+1 m 1,4-DMPZ (5/2/1), 5 m PZ+2.5 m 1-MPZ+0.5 m 1,4-DMPZ (5/2.5/0.5), and 5 m PZ+1.5 m 1-MPZ+[…]. To establish the blend concentrations, it was originally hypothesized that the equilibrium concentration would be 5/2/1. Therefore, that blend, as well as two blends with increased or decreased 1-MPZ concentrations were used and the concentration of 1,4-DMPZ was adjusted to maintain a total concentration of 8 m.

[2] = CO2 solubility (CO2 partial pressure) measured in the wetted wall column; format: physicochemical
Description: (§1) VLE models of CO2 partial pressure were regressed from experimental data to calculate CO2 capacity and enthalpy of CO2 absorption (ΔHabs). […] MPZ and PZ-MPZ both have a slightly higher capacity than PZ. PZ-MPZ absorbs CO2 at a slightly slower rate than 8 m PZ at rich loading, about 50% faster than 7 m MEA. kg′ for MPZ is the same to 7 m MEA. Heat of CO2 absorption for PZ-MPZ (ΔHabs=70 kJ/mol) and MPZ (72 kJ/mol) is close to that for PZ (70 kJ/mol).
CO2 solubility for PZ-MPZ and MPZ are shown in FIG. 3 and FIG. 4, respectively. The filled points are experimental data at varied loadings and temperatures. Parameters for the following semi-empirical VLE equation (Equation 3) were regressed and the model was presented as solid curves in the figures. The curves fit the points satisfactorily. ln P=a+b/T+c·α+d·α/T+e·α^2 Eqn. 3
CO2 solubility for 1-MPZ and the PZ blend are shown in FIG. 11 and FIG. 12 respectively. The filled points are experimental data at varied loadings and temperatures. Parameters for the following semi-empirical VLE equation ln P=a+b/T+c·α+d·α/T+e·α^2 (Eqn. 3) were regressed and the model was presented as curves in the figures. α is the CO2 loading defined as nCO2/nalka. The curves fit the points satisfactorily.

[3] = CO2 absorption/desorption rate (liquid film mass transfer coefficient kg′) in the wetted wall column; format: physicochemical
Description: The CO2 absorption rate of a particular amine may be useful in determining whether an amine is desirable for acidic gas removal. In general, a greater rate of CO2 absorption will allow for the use of less packing, reduced lean loading, or greater rich loading, which in turn can reduce energy consumption. The rate of CO2 absorption can be characterized as the normalized flux, kg′ (gmol/m^2-s-Pa), measured in a model contactor such as a wetted wall column. Similarly, a greater heat of CO2 desorption will reduce the energy requirement of an absorber/stripper relying upon temperature swing regeneration.
as §1
In FIG. 5, absorption/desorption rates for PZ-MPZ at 40° C., 60° C., 80° C. and 100° C. are compared with that of 7 m MEA and 8 m PZ at 40° C.
In FIG. 13 and FIG. 14, absorption/desorption rates for 1-MPZ and the PZ blend at 40° C., 60° C., 80° C. and 100° C. are compared with that of 7 m MEA and 8 m PZ at 40° C.

[4] = Cyclic CO2 capacity calculated from the regressed VLE model; format: physicochemical; settings: for CO2 Capacity: Conc. (m): MDEA/PZ 7/2, PZ 8, MEA 7, HEP 7.7, AEP 6, 2-PE 8, AMP 4.8, EDA 12, DGA 10, PZ-MPZ 4/4, MPZ 8
[5] = Heat of CO2 absorption calculated from the VLE model; format: physicochemical; settings: for ΔHabs@PCO2 = 1.5 kPa: Conc. (m): MDEA/PZ 7/2, PZ 8, MEA 7, HEP 7.7, AEP 6, 2-PE 8, AMP 4.8, EDA 12, DGA 10, PZ-MPZ 4/4, MPZ 8
Experimental: VLE models of CO2 partial pressure were regressed from experimental data to calculate CO2 capacity and enthalpy of CO2 absorption (ΔHabs).
Heat of absorption was calculated from the model mentioned above by applying the following thermodynamic equation: […]
Heat of absorption was calculated from the model mentioned above by applying the Gibbs-Helmholtz equation: […]
The heat absorption of CO2 at a 1.5 kPa, which is an average CO2 partial pressure for lean and rich solutions, was calculated.

[6] = Solubility and solids precipitation limits of amines in water; format: physicochemical
[7] = Solubility measurements of CO2 loaded PZ/1-MPZ/1,4-DMPZ blends; format: physicochemical
Experimental: Solubility measurements for CO2 loaded 3.9 m PZ/3.9 m 1-MPZ/0.2 m 1,4-DMPZ and 3.75 m PZ/3.75 m 1-MPZ/0.5 m 1,4-DMPZ solutions were taken to predict the solubility envelope of these blends. The solubility of the blends at varying loadings and temperatures are shown in FIG. 7 for the 3.9 m PZ/3.9 m 1-MPZ/0.2 m 1,4-DMPZ blend and in FIG. 8 for the 3.75 m PZ/3.75 m 1-MPZ/0.5 m 1,4-DMPZ blend. […] At 0° C., the 8 m blend: 3.75 m PZ/3.75 m 1-MPZ/0.5 m […] was soluble at 2° C. with a lean loading of 0.17 mol CO2/mol alkalinity, in contrast to 8 m PZ, which must be operated at loading above 0.3 to avoid solids precipitation.
A maximum CO2 loading of 0.41 and 0.39 was obtained for the 3.9 m PZ/3.9 m 1-MPZ/0.2 m 1,4-DMPZ blend and the 3.75 m PZ/3.75 m 1-MPZ/0.5 m 1,4 DMPZ blend respectively at room temperature without any solid precipitation. Intermediary loaded solutions were prepared by appropriately mixing the rich loaded and zero loaded solutions and observed at temperatures between 0° C. and the melting point of the solution.

[8] = 298K; cited from earlier work
[9] = ambient temperature; cited from earlier work

SMILES: CN1CCNCC1 [1-MPZ, 1-methyl piperazine]
initial carbon not recovered in the form of the listed products [1]: 21%
PCO2 ([2]; Temp 40° C., CO2 Loading 0.10 mol/mol alka, 8 m 1-MPZ): 0.10 kPa
PCO2 ([2]; Temp 40° C., CO2 Loading 0.20 mol/mol alka, 8 m 1-MPZ): 1.32 kPa
PCO2 ([2]; Temp 40° C., CO2 Loading 0.26 mol/mol alka, 8 m 1-MPZ): 5.55 kPa
PCO2 ([2]; Temp 40° C., CO2 Loading […] alka, 8 m 1-MPZ): 0.35 kPa
PCO2 ([2]; Temp 60° C., CO2 Loading 0.10 mol/mol alka, 8 m 1-MPZ): 0.62 kPa
PCO2 ([2]; Temp 60° C., CO2 Loading 0.20 mol/mol alka, 8 m 1-MPZ): 6.41 kPa
PCO2 ([2]; Temp 60° C., CO2 Loading 0.26 mol/mol alka, 8 m 1-MPZ): 22.95 kPa
PCO2 ([2]; Temp 60° C., CO2 Loading […] alka, 8 m 1-MPZ): 2.15 kPa
PCO2 ([2]; Temp 80° C., CO2 Loading 0.10 mol/mol alka, 8 m 1-MPZ): 3.66 kPa
PCO2 ([2]; Temp 80° C., CO2 Loading 0.20 mol/mol alka, 8 m 1-MPZ): 25.30 kPa
PCO2 ([2]; Temp 80° C., CO2 Loading […] alka, 8 m 1-MPZ): 10.10 kPa
PCO2 ([2]; Temp 100° C., CO2 Loading 0.10 mol/mol alka, 8 m 1-MPZ): 12.84 kPa
PCO2 ([2]; Temp 100° C., CO2 Loading […] alka, 8 m 1-MPZ): 33.01 kPa
absorption/desorption rate compared with 8 m PZ and 7 m MEA ([3]; 0.5 kPa to 5 kPa CO2 partial pressure, comparators at 40° C.): nearly the same as 8 m PZ and much higher than 7 m MEA
cyclic CO2 capacity ([4]; difference between lean and rich CO2 loading at 500 Pa and 5,000 Pa CO2 partial pressure): 0.83 mol CO2/kg (water+amine)
heat absorption of CO2 ([5]; at 1.5 kPa CO2 partial pressure): 67 kJ/mol
miscibility with water [6]: fully miscible with water
precipitation when mixing only the amine in water [7]: no precipitation
first pKa [8]: 9.14
second pKa [8]: 4.63

SMILES: NCCN1CCNCC1 [AEP]
CO2 Capacity [4]: 0.66 mol/kg (water + amine)
ΔHabs@PCO2 = 1.5 kPa [5]: 72 kJ/mol

SMILES: OCCC1CCCCN1 (stereo not shown) [2-PE]
CO2 Capacity [4]: 1.23 mol/kg (water + amine)
ΔHabs@PCO2 = 1.5 kPa [5]: 73 kJ/mol

SMILES: CN1CCN(C)CC1 [1,4-DMPZ, 1,4-dimethyl-piperazine]
precipitation when mixing only the amine in water [7]: no precipitation

SMILES: C1CNCCN1.O.O.O.O.O.O [piperazine hexahydrate]
solubility in water [9]: about 2 moles/kg H2O

SMILES: CC1CNCCN1 (racemic) [2MPZ, 2-methyl piperazine]
PCO2 ([2]; Temp 40° C., CO2 Loading 0.102 mol/mol alka, 8 m MPZ): 0.01 kPa
PCO2 ([2]; Temp 40° C., CO2 Loading 0.154 mol/mol alka, 8 m MPZ): 0.04 kPa
PCO2 ([2]; Temp 40° C., CO2 Loading 0.203 mol/mol alka, 8 m MPZ): 0.12 kPa
PCO2 ([2]; Temp 40° C., CO2 Loading 0.253 mol/mol alka, 8 m MPZ): 0.32 kPa
PCO2 ([2]; Temp 40° C., CO2 Loading 0.3 mol/mol alka, 8 m MPZ): 0.96 kPa
PCO2 ([2]; Temp 40° C., CO2 Loading 0.365 mol/mol alka, 8 m MPZ): 4.73 kPa
PCO2 ([2]; Temp 60° C., CO2 Loading 0.102 mol/mol alka, 8 m MPZ): 0.09 kPa
PCO2 ([2]; Temp 60° C., CO2 Loading 0.154 mol/mol alka, 8 m MPZ): 0.29 kPa
PCO2 ([2]; Temp 60° C., CO2 Loading 0.203 mol/mol alka, 8 m MPZ): 0.86 kPa
PCO2 ([2]; Temp 60° C., CO2 Loading 0.253 mol/mol alka, 8 m MPZ): 2.26 kPa
PCO2 ([2]; Temp 60° C., CO2 Loading 0.3 mol/mol alka, 8 m MPZ): 4.87 kPa
PCO2 ([2]; Temp 60° C., CO2 Loading 0.365 mol/mol alka, 8 m MPZ): 22.41 kPa
PCO2 ([2]; Temp 80° C., CO2 Loading 0.102 mol/mol alka, 8 m MPZ): 0.59 kPa
PCO2 ([2]; Temp 80° C., CO2 Loading 0.154 mol/mol alka, 8 m MPZ): 1.80 kPa
PCO2 ([2]; Temp 80° C., CO2 Loading 0.203 mol/mol alka, 8 m MPZ): 4.06 kPa
PCO2 ([2]; Temp 80° C., CO2 Loading 0.253 mol/mol alka, 8 m MPZ): 9.72 kPa
PCO2 ([2]; Temp 80° C., CO2 Loading 0.3 mol/mol alka, 8 m MPZ): 22.06 kPa
PCO2 ([2]; Temp 100° C., CO2 Loading 0.102 mol/mol alka, 8 m MPZ): 2.68 kPa
PCO2 ([2]; Temp 100° C., CO2 Loading 0.154 mol/mol alka, 8 m MPZ): 7.39 kPa
PCO2 ([2]; Temp 100° C., CO2 Loading 0.203 mol/mol alka, 8 m MPZ): 18.65 kPa
absorption/desorption rate (kg′) compared with PZ and MEA ([3]; 0.5 kPa to 5 kPa P*CO2, comparators 7 m MEA and 8 m PZ at 40° C.): between MEA and PZ
CO2 Capacity [4]: 0.93 mol/kg (water + amine)
Heat of CO2 absorption (ΔHabs) ([5]; 8 m MPZ, 4 m PZ/4 m MPZ blend, 8 m PZ): 72 kJ/mol
ΔHabs@PCO2 = 1.5 kPa [5]: 72 kJ/mol
solubility over CO2 loading: highly soluble over the full range of CO2 loading

SMILES: CC(N)CN (stereo not shown) [1,2-diaminopropane]
solids precipitation ([6]; rich conditions, 8 m): precipitates solids

The remaining lines, values ahead:

CO2 Capacity [4]: 0.68 mol/kg (water + amine)
ΔHabs@PCO2 = 1.5 kPa [5]: 69 kJ/mol
SMILES: OCCN1CCNCC1 [HEP]

CO2 Capacity [4]: 0.47 mol/kg (water + amine)
ΔHabs@PCO2 = 1.5 kPa [5]: 82 kJ/mol
SMILES: NCCO [MEA, monoethanolamine]

CO2 Capacity [4]: 0.38 mol/kg (water + amine)
ΔHabs@PCO2 = 1.5 kPa [5]: 81 kJ/mol
SMILES: NCCOCCO [DGA ®]

CO2 Capacity [4]: 0.96 mol/kg (water + amine)
ΔHabs@PCO2 = 1.5 kPa [5]: 73 kJ/mol
SMILES: CC(C)(N)CO [AMP]
